Source: patent publication EP1077981B1, “NOVEL CEPHALOSPORIN COMPOUNDS, PROCESSES FOR PREPARATION THEREOF AND ANTIMICROBIAL COMPOSITIONS CONTAINING THE SAME” (LG CHEMICAL LIMITED, priority 1998, dated 1999)
Values after ≈ are worked out from the molar mass of the structure shown. Read-outs that look alike come from different tables or passages of the source.

Key:
[1] = test system: Salmonella typhimurium 14028; assay: MIC against standard strains (agar dilution); type: cell-based; conditions: Salmonella enterica; Salmonella typhimurium 14028; Mueller-Hinton agar, 20 hours at 37°C; read-out: MIC
Method in brief: (§1)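 First, compounds are diluted 2-fold and dispersed in Mueller-Hinton agar. Next, bacteria at 10^7 cfu/mℓ are inoculated onto the plates. Finally, plates incubate at 37°C for 20 hours before MIC scoring.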

[2] = test system: Staphylococcus epidermidi 887E; assay: MIC against standard strains (agar dilution); type: cell-based; conditions: Staphylococcus epidermidi 887E; Mueller-Hinton agar, 20 hours at 37°C; read-out: MIC
Method in brief: as §1

[3] = test system: Klebsiella aerogenes SHV-1 1976E; assay: MIC against standard strains (agar dilution); type: cell-based; conditions: Klebsiella aerogenes, 20 h
Method in brief: as §1

[4] = test system: Klebsiella pneumoniae 2011E; assay: MIC against standard strains (agar dilution); type: cell-based; conditions: Klebsiella pneumoniae 2011E; Mueller-Hinton agar, 20 hours at 37°C; read-out: MIC
Method in brief: as §1

[5] = test system: Enterobacter cloacae IND+VE 1194E; assay: MIC against standard strains (agar dilution); type: cell-based; conditions: Enterobacter cloacae IND+VE 1194E; Mueller-Hinton agar, 20 hours at 37°C; read-out: MIC
Method in brief: as §1

[6] = test system: Staphylococcus aureus 6538p; assay: MIC against standard strains (agar dilution); type: cell-based; conditions: Staphylococcus aureus 6538p; Mueller-Hinton agar, 20 hours at 37°C; read-out: MIC
Method in brief: as §1

Escherichia coli 851E = assay: MIC against standard strains (agar dilution); type: cell-based; conditions: Escherichia coli, 851E, 20 h
Method in brief: as §1

Proteus vulgaris 6059 = assay: MIC against standard strains (agar dilution); type: cell-based; conditions: Proteus vulgaris 6059; Mueller-Hinton agar, 20 hours at 37°C; read-out: MIC
Method in brief: as §1

[7] = test system: Escherichia coli TEM1 1193E; assay: MIC against standard strains (agar dilution); type: cell-based; conditions: TEM11193E, 20 h
Method in brief: as §1

[8] = test system: Klebsiella aerogenes K1+ 1082E; assay: MIC against standard strains (agar dilution); type: cell-based; conditions: Klebsiella aerogenes K1+ 1082E; Mueller-Hinton agar, 20 hours at 37°C; read-out: MIC
Method in brief: as §1

[9] = test system: Citrobacter freundii 8090; assay: MIC against standard strains (agar dilution); type: cell-based; conditions: Citrobacter freundii 8090; Mueller-Hinton agar, 20 hours at 37°C; read-out: MIC
Method in brief: as §1

[10] = test system: Staphylococcus aureus giorgio; assay: MIC against standard strains (agar dilution); type: cell-based; conditions: Staphylococcus aureus giorgio; Mueller-Hinton agar, 20 hours at 37°C; read-out: MIC
Method in brief: as §1

[11] = test system: Moraxella catarrhalis 25240; assay: MIC against standard strains (agar dilution); type: cell-based; conditions: Moraxella catarrhalis 25240; Mueller-Hinton agar, 20 hours at 37°C; read-out: MIC
Method in brief: as §1

[12] = test system: Pseudomonas aeruginosa 1912E; assay: MIC against standard strains (agar dilution); type: cell-based; conditions: Pseudomonas aeruginosa 1912E; Mueller-Hinton agar, 20 hours at 37°C; read-out: MIC
Method in brief: as §1

[13] = test system: Staphylococcus aureus 241; assay: MIC against standard strains (agar dilution); type: cell-based; conditions: Staphylococcus aureus 241; Mueller-Hinton agar, 20 hours at 37°C; read-out: MIC
Method in brief: as §1

[14] = test system: Acinetobacter calcoaceticu 15473; assay: MIC against standard strains (agar dilution); type: cell-based; conditions: Acinetobacter calcoaceticu 15473; Mueller-Hinton agar, 20 hours at 37°C; read-out: MIC
Method in brief: as §1

Enterobacter cloacae P99 = assay: MIC against standard strains (agar dilution); type: cell-based; conditions: Enterobacter cloacae P99; Mueller-Hinton agar, 20 hours at 37°C; read-out: MIC
Method in brief: as §1

[15] = test system: Moraxella catarrhalis C2431; assay: MIC against standard strains (agar dilution); type: cell-based; conditions: Moraxella catarrhalis C2431; Mueller-Hinton agar, 20 hours at 37°C; read-out: MIC
Method in brief: as §1

[16] = Pharmacokinetic experiment (blood concentration by HPLC); type: in vivo, mice; conditions: male, mouse, blood, 20 mg/kg
Procedure: Test example 2: Pharmacokinetic experiment
Male mice, each of which has a body weight of […] were used in the present pharmacokinetic experiment. Test compounds were formulated into 1% of solution and then, the solution was administered by oral route and by injection with a dose of 20mg/kg, respectively. At the fixed interval of time after administration, blood was gathered from the mice. Concentrations of test compounds in blood were measured by HPLC quantitative analysis and based on the results, pharmacokinetic parameters were calculated.

[17] = intravenous, Injection, read-out: average conc.
[18] = intravenous, Injection, read-out: blood concentration, mouse-1
[19] = intravenous, Injection, read-out: blood concentration, mouse-2
[20] = other: injection, Injection, read-out: average conc.
[21] = other: injection, Injection, read-out: blood concentration, mouse-1
[22] = other: injection, Injection, read-out: blood concentration, mouse-2
[23] = po, Oral administration, read-out: average conc.
[24] = po, Oral administration, read-out: blood concentration, mouse-1
[25] = po, Oral administration, read-out: blood concentration, mouse-2
[26] = po, Oral administration, read-out: blood concentration, mouse-3

## CO/N=C(\C(=O)NC1C(=O)N2C(C(=O)O)=C(Sc3cc(N)nc(N)n3)CSC12)c1csc(N)n1 (stereo not drawn) [Compound No. 25, 7-[(Z)-2-(2-amino-thiazol-4-yl)-2-methoxyimino-acetylamino]-3-(2,6-diamino-pyrimidin-4-ylsulfanyl)-8-oxo-5-thia-1-azabicyclo[4,2,0]oct-2-ene-2-carboxylic acid]
[1]
  MIC: 0.25 µg/mL (≈ 0.477 µM)
[2]
  MIC: 8 µg/mL (≈ 15.3 µM)
[3]
  MIC: 0.25 µg/mL (≈ 0.477 µM)
[4]
  MIC: 0.5 µg/mL (≈ 0.955 µM)
[5]
  MIC: > 64 µg/mL
[6]
  MIC: 1 µg/mL (≈ 1.91 µM)
Escherichia coli 851E
  MIC: 0.063 µg/mL (≈ 0.12 µM)
Proteus vulgaris 6059
  MIC: 0.016 µg/mL (≈ 0.0306 µM)
[7]
  MIC: 0.25 µg/mL (≈ 0.477 µM)
[8]
  MIC: > 64 µg/mL
[9]
  MIC: 1 µg/mL (≈ 1.91 µM)
[10]
  MIC: 0.5 µg/mL (≈ 0.955 µM)
[11]
  MIC: ≤ 0.008 µg/mL
[12]
  MIC: 16 µg/mL (≈ 30.6 µM)
[13]
  MIC: 8 µg/mL (≈ 15.3 µM)
[14]
  MIC: 64 µg/mL (≈ 122 µM)
Enterobacter cloacae P99
  MIC: > 64 µg/mL
[15]
  MIC: ≤ 0.008 µg/mL
[16]; [17]
  concentration at 1 min: 96400 ng/mL
  concentration at 5 min: 41200 ng/mL
  concentration at 10 min: 29100 ng/mL
  concentration at 120 min: 1800 ng/mL
  concentration at 180 min: 800 ng/mL
  concentration at 240 min: 400 ng/mL
[16]; [18]
  concentration at 1 min: 120000 ng/mL
  concentration at 5 min: 51700 ng/mL
  concentration at 10 min: 37700 ng/mL
  concentration at 120 min: 2200 ng/mL
  concentration at 180 min: 1100 ng/mL
  concentration at 240 min: 500 ng/mL
[16]; [19]
  concentration at 1 min: 72800 ng/mL
  concentration at 5 min: 30700 ng/mL
  concentration at 10 min: 20400 ng/mL
  concentration at 120 min: 1300 ng/mL
  concentration at 180 min: 600 ng/mL
  concentration at 240 min: 300 ng/mL
[16]; [20]
  concentration at 20 min: 17100 ng/mL
  concentration at 40 min: 9800 ng/mL
  concentration at 60 min: 6100 ng/mL
  concentration at 90 min: 3300 ng/mL
[16]; [21]
  concentration at 20 min: 21600 ng/mL
  concentration at 40 min: 12200 ng/mL
  concentration at 60 min: 7600 ng/mL
  concentration at 90 min: 4300 ng/mL
[16]; [22]
  concentration at 20 min: 12700 ng/mL
  concentration at 40 min: 7300 ng/mL
  concentration at 60 min: 4600 ng/mL
  concentration at 90 min: 2400 ng/mL
[16]; [23]
  concentration at 5 min: 90 ng/mL
  concentration at 10 min: 200 ng/mL
  concentration at 20 min: 490 ng/mL
  concentration at 40 min: 470 ng/mL
  concentration at 60 min: 440 ng/mL
  concentration at 90 min: 570 ng/mL
  concentration at 120 min: 360 ng/mL
  concentration at 180 min: 410 ng/mL
  concentration at 240 min: 230 ng/mL
[16]; [24]
  concentration at 5 min: 70 ng/mL
  concentration at 10 min: 160 ng/mL
  concentration at 20 min: 280 ng/mL
  concentration at 40 min: 270 ng/mL
  concentration at 60 min: 160 ng/mL
  concentration at 90 min: 70 ng/mL
  concentration at 120 min: 60 ng/mL
  concentration at 180 min: 60 ng/mL
  concentration at 240 min: 60 ng/mL
[16]; [25]
  concentration at 5 min: 130 ng/mL
  concentration at 10 min: 270 ng/mL
  concentration at 20 min: 720 ng/mL
  concentration at 40 min: 590 ng/mL
  concentration at 60 min: 610 ng/mL
  concentration at 90 min: 840 ng/mL
  concentration at 120 min: 480 ng/mL
  concentration at 180 min: 590 ng/mL
  concentration at 240 min: 220 ng/mL
[16]; [26]
  concentration at 5 min: 60 ng/mL
  concentration at 10 min: 140 ng/mL
  concentration at 20 min: 270 ng/mL
  concentration at 40 min: 350 ng/mL
  concentration at 60 min: 260 ng/mL
  concentration at 90 min: 290 ng/mL
  concentration at 120 min: 240 ng/mL
  concentration at 180 min: 240 ng/mL
  concentration at 240 min: 230 ng/mL
